Measured values from patent publication US9604974B2, “Compounds as modulator of JAK-STAT pathway, methods and applications thereof” (UNIVERSITY OF MYSORE, priority 2015, dated 2017).

Tests used:
[1] = system: HepG2 cells; experiment: Cell cycle distribution by PI flow cytometry (sub-G1); format: cell-based, human; details: HepG2, 10 μMol/L CIMO
Description: FIG. 1 depicts the accumulation of HepG2 cells in SubG1 phase caused by Compound 1 (CIMO). HepG2 cells (5×10^5/mL) are treated with 10 μMol/L CIMO for indicated time points, after which the cells are washed, fixed, stained with PI, and analyzed for DNA content by flow cytometry.
In late apoptosis, activation of endonucleases leads to fragmentation of genomic DNA into oligomers thereby contributing to a decrease in DNA content, which in turn leads to the buildup of cells in Sub-G1 phase. In order to evaluate the effect of Compound 1 on cell cycle distribution of HepG2 cells, flow cytometric analysis is performed. HepG2 cells are treated with CIMO at different time intervals up to 48 hours. Thereafter, cells are washed, fixed with 70% ethanol, and incubated for about 30 minutes about at 37° C. with 0.1% RNaseA in PBS. Cells are then washed again, resuspended, and stained in PBS containing 25 μg/ml propidium iodide (PI) for about 30 minutes at room temperature. Cell distribution across the cell cycle after PI staining is analyzed with a Beckman Coulter flow cytometer.

[2] = system: JAK1; experiment: IL-6 induced JAK1 phosphorylation in Hep3B; format: cell-based; details: 10 μMol/L CIMO, IL-6 10 ng/mL
Description: FIG. 3 depicts comparative study of cell viability between STAT3-siRNA transfected and Compound 1 (CIMO) treated HepG2 cells [A]. Correspondingly, Western Blot analysis is used to assess the levels of phospho-STAT3 and STAT3 in HepG2 cells with siRNA-mediated depletion STAT3 expression and on exposure to 4 μM CIMO. Whole cell extract is prepared and resolved on SDS-PAGE gel, electrotransferred onto nitrocellulose membrane, and probed for phospho-STAT3 and the same blot is stripped and reprobed with STAT3 antibody and Beta actin to verify equal protein loading. [B] showcases the modulation of STAT3 mediated transcription, α2-M promoter activity by Compound 1 (CIMO) in HepG2 cells. [C] depicts the inhibition of IL-6-induced phosphorylation of STAT3, JAK1 and JAK2 by Compound 1 (CIMO). Hep3B cells (5×10^5/mL) are treated with 10 μMol/L CIMO for the indicated times and then stimulated with IL-6 (10 ng/mL) for about 15 minutes. Whole-cell extracts are then prepared, resolved on SDS-PAGE gel, electrotransferred onto nitrocellulose membrane and probed with phospho-STAT3, phospho-JAK1 and phospho-JAK2 antibodies. The same blot is stripped and reprobed with STAT3, JAK1 and JAK2 antibody to verify equal protein loading. [D] and [E], showcases the suppression of STAT3 regulated gene products involved in cell proliferation and survival by Compound 1 (CIMO). […]

For `COc1ccc(C2CNC(c3cn(Cc4ccc(-c5ccccc5C#N)cc4)c4ccccc34)OC23CCCCC3)cc1` (centres unmarked) [Compound 1], the sub-G1 cell population ([1]; 16 hours) was 18.8%, the sub-G1 cell population ([1]; 24 hours) was 38.7% and the sub-G1 cell population ([1]; 36 hours) was 71%. The sub-G1 cell population ([1]; 48 hours) was 92.1% and the “IL-6 induced phosphorylation of JAK1” value [2] was “substantially down-regulates”.
